Data set [1] concerns CUMS model mice. Kind of data set: Forced swimming test in CUMS model mice, intravenous administration. Format: in vivo, C57/B6 mice. The following applies: single i.v. dose 100 mg/kg, test 2 hours later (FIG. 3). From the text: (§1) 6-8-week-old C57/B6 mice (purchased from: Jinan Pengyue Laboratory Animal Breeding Co., Ltd.) were used to establish a 28-day chronic unpredictable mild stress (CUMS) animal model, and an experimental procedure referred to document description^[1,2]. After one week of acclimatization, seven experiments, including food and water deprivation, foot shock, wet bedding, cage tilting, restraint stress, shaker stress, and olfactory stimulation, were randomly applied to the animals within one week to achieve unpredictability, and the stimulation was continued for 4 consecutive weeks. The successful establishment of the model was verified by an open field test (OFT)^[3], and then pharmacodynamic evaluation was carried out. The animals were divided into a blank control group (Control), a model group (Model), a vehicle control group (Vehicle), a fluoxetine control group and a compound group in the experiment. The test compound was intravenously (i.v.) administered once at a dose of 100 mg/kg, a tail suspension test (TST) and a forced swimming test (FST)^[4,5] were carried out 2 hours later to evaluate the depression of the mice, and prolonged immobility time in the TST and the FST indicated behavioral despair of the mice. After summary statistics of data, SPSS data statistics software was used for analysis, and Graph Pad software was used for graph generation based on SPSS analysis results.

Data set [2] has as its system CUMS model mice. Kind of data set: Tail suspension test in CUMS model mice, intravenous administration. The data set is classed as in vivo, C57/B6 mice. The following applies: single i.v. dose 100 mg/kg, test 2 hours later (FIG. 4).
Source text: as §1

A short description of data set [3]: Mouse pharmacokinetic detection. The following applies: CD1 mice; for AUC(0-t): oral gavage 10 mg/kg; for bioavailability: oral gavage 10 mg/kg vs intravenous 10 mg/kg. The data set is classed as in vivo. On the procedure: The detection was carried out in 6-8-week-old CD1 mice (purchased from: Speifu (Beijing) Biotechnology Co., Ltd.). […] The concentration of the compound in a plasma sample was analyzed by LC-MS/MS. Pharmacokinetic calculation was carried out by using WinNonlin (Phoenix™, Version 8.3) or other similar software. The following pharmacokinetic parameters were calculated based on plasma concentration and time data: Oral administration: AUClast, bioavailability (F). Statistical calculation was carried out on the above parameter data. Table 3 Pharmacokinetic data of some compounds administered orally in mice

The test system of a further data set is MDR1-MDCK II cells. In words: Permeability detection in MDR1-MDCK II cell monolayer. Format: in vitro ADME. The note with it: permeability rank. On the procedure: (§2) MDR1-MDCK II cells (imported from the Netherlands Cancer Institute) were seeded in a 96-well cell plate at a density of 3.33×10^5 cells/mL, and cultured in a carbon dioxide incubator for 4-7 days to form a cell monolayer. A Hank's balanced salt solution (HBSS, pH 7.40 ± 0.05) containing 10.0 mM 4-(2-hydroxyethyl)-1-piperazineethanesulfonic acid (HEPES) was used as a transport buffer. A DMSO stock solution of compound was diluted to 2 µM (DMSO < 1.0%) with the transport buffer, and added to the basolateral (B) side and apical (A) side respectively (N=2). The bidirectional (A-B and B-A) incubation concentration of Digoxin, a P-gp substrate, was 10 µM, and the unidirectional (A-B) incubateion concentrations of Nadolol, a low-permeability control, and Metoprolol, a high-permeability control, were 2 µM. The cell plate was incubated in a 5% CO2 cell incubator at 37°C and saturated humidity for 2.5 hours, then final samples from a receiver side and a donor side were collected, added with the transport buffer and a precipitant at an appropriate ratio, and analyzed by LC-MS/MS, and an apparent permeability coefficient, an efflux ratio and a solution recovery were calculated.
(§3) After the transport experiment was completed, an integrity of the MDR1-MDCK II cell layer was detected by a lucifer yellow detection experiment. Residual solution in apical and basolateral wells was removed, and 75 µL of transport buffer containing 100 µM lucifer yellow was added to the apical wells and 250 µL of transport buffer was added to the basolateral wells respectively. The cell plate was incubated in a 5% CO2 cell incubator at 37 °C and saturated humidity for 30 minutes, then 20 µL of sample was taken from the apical side and mixed with 60 µL of transport buffer and 80 µL of sample was taken from the basolateral side. A relative fluorescence intensity was detected by a microplate reader at excitation/emission wavelengths of 425/528 nm, and the permeability of Lucifer Yellow was calculated.
(§4) The apparent permeability coefficient (Papp), efflux ratio (ER) and %solution recovery were respectively calculated by following formulas: Papp = (VR)/(Area × Time) × ([drug]receiver)/([drug]initial,donor) = (VR)/(Area × Time) × (CR)/(C0) [formula] Efflux Ratio = (Papp (B−A))/(Papp (A−B)) [formula] %Solution Recovery = (CR × VR + CD × VD)/(C0 × VD) × 100 [formula]
(§5) VR was the volume of solution in the receiver side (0.075 mL for the apical side and 0.25 mL for the basolateral side respectively), VD was the volume of solution in the donor side (0.075 mL for the apical side and 0.25 mL for the basolateral side respectively), CR was the peak area ratio of compound in the receiver side, CD was the peak area ratio of compound in the donor side, C0 was the initial peak area ratio of compound in the donor side, Area was the surface area (0.143 cm^2) of the cell monolayer, and Time was incubation time of 9000 seconds (150 minutes). Papp(B-A) and Papp(A-B) respectively referred to the apparent permeability coefficient from the basolateral side to the apical side and the apparent permeability coefficient from the apical side to the basolateral side.
(§6) The permeability of Lucifer Yellow(%Lucifer Yellow) was calculated by the following formula: %Lucifer Yellow = (VBasolateral × RFUBasolateral)/(VApical × RFUApical + VBasolateral × RFUBasolateral) × 100 [formula]
(§7) RFUApical and RFUBasolareral respectively referred to relative fluorescence intensities of lucifer yellow in the apical side and the basolateral side. VApical and VBasolateral respectively referred to loading volumes (0.075 mL and 0.25 mL respectively) in the apical side and the basolateral side. Table 2 Permeability data of some compounds

Experiment in data set [4]: as above
Format: in vitro ADME. The note with it: dog, pH 7.4, MDR1-MDCK II cells, 2 µM, 2.5 hours; for Papp A→B at 2.5 h, 2 µM: apical to basolateral; for Papp B→A at 2.5 h, 2 µM: basolateral to apical. On the procedure:
as §2, §3, §4, §5, §6, §7

The nature of data set [5]: Rat pharmacokinetic detection. The data set is classed as in vivo. The following applies: plasma, male SD rats. The procedure:
The detection was carried out in 6-8-week-old male SD rats (purchased from:SPF (Beijing) Biotechnology Co., Ltd.). A test compound was dissolved in a solution containing 10% DMSO, 15% Solutol HS and 75% (aqueous solution of 10% hydroxypropyl-β-cyclodextrin), and administered via intravenous injection (10 mg/kg) or oral gavage (15 mg/kg). A concentration of the compound in a plasma sample was analyzed by LC-MS/MS. Pharmacokinetic calculation was carried out by using WinNonlin (Phoenix™, Version 8.3). The following pharmacokinetic parameters were calculated based on plasma concentration and time data: Oral administration: AUClast, bioavailability (F). Statistical calculation was carried out on the above parameter data. Table 4 Pharmacokinetic data of some compounds administered orally in rats

Data set [6] has as its system CUMS model mice. Kind of data set: Tail suspension test in CUMS model mice, oral administration. Format: in vivo, C57/B6 mice. The note with it: single oral dose 25 mg/kg, test 2 hours later (FIG. 1, FIG. 2).
Source text: as §1, with “fluoxetine control group, ZZL-7 experimental group and” for “fluoxetine control group and”, “compound was orally administered once” for “compound was intravenously (i.v.) administered once”, “dose of 25 mg/kg, a” for “dose of 100 mg/kg, a”, “suspension test (TST)^[4,5] was carried out” for “suspension test (TST) and a forced swimming test (FST)^[4,5] were carried out”, “the TST indicated behavioral” for “the TST and the FST indicated behavioral”

A short description of data set [7]: Plasma stability determination. Format: in vitro ADME. The following applies: mouse. On the procedure: Mouse plasma (purchased from IPHASE, Batch No. 23B007) was thawed in a 37°C water bath, centrifuged to remove an upper clot, and the pH value was recorded as 7-8. An appropriate volume of stock solution of test compound in acetonitrile (at a concentration of 10 mM) was diluted with acetonitrile to 1 mM, so as to serve as a test drug solution. An appropriate volume of test drug solution was added to a corresponding volume of plasma and mixed uniformly, such that the concentration of the test compound in the incubation system was 5 µM, and the content of the organic solvent acetonitrile was 0.5%. 50 µL of mixed plasma was transferred into a 96-well plate (N=2), incubated at 37°C in a water bath for a designated time, and then added with 300 µL of internal standard-containing methanol solution to terminate the reaction. The reaction mixture was vortexed and centrifuged, and the supernatant was subjected to LC-MS/MS analysis. Propantheline and ZZL-7 were used as positive controls, and processed and tested under the same conditions as the test compound. A curve was plotted with the remaining percentage of the compound against incubation time to obtain a k value, and the half-life of each compound was calculated.

Where a SMILES comes first, the peptide text is derived from it. [ ]: non-standard residue; d: D form. ξ: configuration not given here. ξAze = O=C(O)C1CCN1

Broadly, the AUC(0-t) is the area under the concentration-time curve up to a stated or last time point. A low value points to low exposure. Take `COC(=O)[C@@H](NC(=O)c1cnc(C)[nH]1)C(C)C` [A-1-1]: in the data set with CUMS model mice [1], the “immobility time in the forced swimming test” value is “rapidly reverse the prolonged immobility time”. Also, the “immobility time in the tail suspension test” value with CUMS model mice [2] is “rapidly reverse the prolonged immobility time”. Besides, in data set [3] (plasma), the AUC(0-t) worked out at 629 ng·h/mL and the bioavailability stood at 35.3%.
With `COC(=O)[C@@H](NC(=O)c1ccc[nH]1)C(C)C` [A-1-7], in the data set with CUMS model mice [1], the “immobility time in the forced swimming test” value is recorded as “rapidly reverse the prolonged immobility time”. The “immobility time in the tail suspension test” value with CUMS model mice [2] is “rapidly reverse the prolonged immobility time”. In data set [3] (in vivo), the AUC(0-t) was determined as 154 ng·h/mL and the bioavailability turned out to be 27.3%.
As for `COC(=O)[C@@H](NC(=O)C1CCN1C(C)=O)C(C)C` (stereo partly drawn) [A-2-1] (Ac-[ξAze]-Val-OMe), in the data set on CUMS model mice [1], the “immobility time in the forced swimming test” value was “rapidly reverse the prolonged immobility time”. Also, the “immobility time in the tail suspension test” value in the data set on CUMS model mice [2] is “rapidly reverse the prolonged immobility time”. In addition, in data set [3] (plasma), the AUC(0-t) was 3130 ng·h/mL and the bioavailability stood at 156%.
The term Papp A→B denotes the apparent permeability from the apical to the basolateral side of a cell layer. One may read the Papp B→A as the apparent permeability from the basolateral to the apical side of a cell layer. Turning to `[2H]C([2H])([2H])C(=O)N1CC[C@@H]1C(=O)N[C@H](c1ncco1)C(C)C` [B-2-3], the “Rank Papp” value in the data set on MDR1-MDCK II cells is “Moderate”. In data set [4], this compound displayed a Papp A→B at 2.5 h, 2 µM of 2.42 ×10⁻⁶ cm/s and a Papp B→A at 2.5 h, 2 µM of 3.22 ×10⁻⁶ cm/s. Also, in data set [3] (plasma), the AUC(0-t) was determined as 10900 ng·h/mL and the bioavailability is 159%. Besides, in data set [5] (oral gavage 15 mg/kg), the AUC(0-t) was 24300 ng·h/mL. In data set [5] (oral gavage 15 mg/kg vs intravenous 10 mg/kg), the bioavailability was 66%. The “immobility time in the tail suspension test” value in the data set with CUMS model mice [6] was “rapidly reverse the prolonged immobility time”.
Broadly, the half-life is the time in which the quantity being followed falls by half. Higher therefore signals slow decline. For the compound `CC(=O)N1CC[C@@H]1C(=O)N[C@H](c1ncco1)C(C)C` [B-2-41], in the data set with MDR1-MDCK II cells, the “Rank Papp” value is listed as “Moderate”. In data set [4], this compound gave a Papp A→B at 2.5 h, 2 µM of 4.07 ×10⁻⁶ cm/s and a Papp B→A at 2.5 h, 2 µM of 5.61 ×10⁻⁶ cm/s. In data set [3] (plasma), the AUC(0-t) amounted to 11600 ng·h/mL and the bioavailability worked out at 90%. The compound further yielded a half-life at 5 µM in data set [7] of more than 4.82 h. Further, in the data set with CUMS model mice [6], the “immobility time in the tail suspension test” value is recorded as “rapidly reverse the prolonged immobility time”.

The values above are taken from EP4818189A1, “NITROGEN-CONTAINING HETEROCYCLIC COMPOUND, AND PREPARATION METHOD AND USE THEREFOR” (Chengdu Di'ao Pharmaceutical Group Co., Ltd., priority 2023, dated 2025).
